Converted amounts (≈) assume the structure as drawn. Like-named read-outs stand apart in the source and are kept apart here.
How the values were obtained:
[1] = Microsomal stability in human liver microsomes; assay type: in vitro ADME; conditions: hLM; for half-life at 10 µM / microsomal CLint at 10 µM: human, liver microsomes
Protocol: Metabolic stability analysis (mouse and human liver microsomes) was performed by Eurofins Cerep (Poitiers, France) at 10 µM as described in [55]. Results were obtained at 15, 30, 45 and 60 min. Results were expressed as percent of the parent compound remaining, and calculated by comparing the peak area of the compound at the time point relative to that at time 0. The half-life (t1/2) and the apparent intrinsic clearance (CLint) were evaluated.
Metabolite identification was performed by HPLC-High Resolution mass spectrometry (MS). Chromatographic separation was performed on an Accela UPLC system (Thermo Fisher Scientific Inc. Waltham, MA, USA) equipped with an ACE 3 C18-AR column (100 × 2.1 mm, particle size 3 μm; AIT, Cormeilles-en-Parisis, France) preceded by a guard column (same stationary phase). The elution was performed with a gradient mode using water (solvent A) and ACN (solvent B), all acidified with 0.1% formic acid. The linear gradient elution program was as follows: 10% of B for 2 min; linear increase from 10 to 90% of solvent B for 20 min; 1 min at 90% of B; and 2 min of re-equilibration with 10% of B for a total run of 25 min. The LC flow rate was 400 µL/min and the injection volume was 10 μL. The column oven temperature was 30 °C and the sample tray temperature 4 °C. Eluted compounds were detected in positive mode by a full mass scan (m/z 200 to 500) using a Orbitrap Mass Spectrometer Exactive (Thermo Fisher Scientific Inc. Waltham, MA, USA) equipped with a heated electrospray ionization source (HESI-II). Instrument parameters were as follows: sheath gas 35, auxiliary gas 10 (both arbitrary units), spray voltage 2.4 kV, capillary temperature 275 °C, capillary voltage 67.5 V, tube lens voltage 120 V, skimmer voltage 24 V and source temperature 350 °C. Mass spectra were recorded at an ultra-high resolution (100,000). Instrument control, data acquisition and processing were performed using the associated Thermo Scientific software package (Xcalibur v.2.2 and Exactive v1.1).

[2] = Solubility, shake-flask method; assay type: physicochemical; conditions: thermodynamic from solid
Protocol: Standardized in vitro ADME experiments were performed by Eurofins Cerep (Poitiers, France). Solubility assays were performed in PBS at pH 7.4, but also in simulated gastric fluid (SGF) and intestinal fluid (SIF), through the classical shake-flask method according to Lipinski et al. using HPLC-UV/VIS technology. Results were expressed in µM.

Plasma stability = assay type: in vitro ADME; conditions: male, CD-1, mouse, 37 °C, read-out: Plasma t½ (converted)
Protocol: Plasma stability analyses were performed by M2SV (Lille, France). Incubations were performed in duplicate. The plasma (male mouse plasma CD-1, lithium-heparinized, from Sera Laboratories International Ltd. BioIVT, West Sussex, UK) was pre-incubated for 10 min at 37 °C before addition of the compound to a final concentration of 10 µM (0,1% DMSO). At the defined time points (0, 60, 1440 and 2880 min), fractions from each tube were transferred to fresh tubes containing cold CH3CN and an internal standard (Propanolol at 1 µM). After vigorous agitation and centrifugation (10 min at 10,000 rpm), the supernatants were analyzed. The degradation half-life (t1/2) values were calculated in minutes and hours via non-linear regression analysis using Microsoft® XLfit® Excel add-in from IDBS Ltd, Woking, UK.

ABST = ABST (Homo sapiens, UniProt Q12908); assay: Drug transporter inhibition (SLC family); assay type: in vitro ADME; conditions: read-out: Drug transporters inhibition ABST
Protocol: (§1) The compound was classically evaluated at 10 µM for all the ADME analyses. Bidirectional permeability (apical A to basolateral B pH 6.5/7.4 and basolateral B to apical A pH 7.4/6.5) was assessed in the epithelial colorectal adenocarcinoma cell line (Caco-2 cell line). Results were expressed as × 10^−6cm/s (Papp) and as % recovery. Efflux ratio, i.e., Papp(B-A)/Papp(A-B), was calculated. Plasma protein binding was analyzed by HPLC-MS/MS after 4-h incubation at 37 °C, as described by Banker et al.. Concentration was evaluated by LC/MS-MS. CYP inhibition was performed in human liver microsomes as described in [61]. Analysis of the respective metabolites. was performed by HPLC-MS/MS. Transporter inhibition analysis was also performed in overexpressing cell lines. Respective metabolites for each specific transporter substrate were analyzed by fluorometry or scintillation counting and % inhibition of control values were calculated. P-glycoprotein transporter substrate assessment was performed by bidirectional permeability analysis (apical A to basolateral B pH 7.4/7.4 and basolateral B to apical A pH 7.4/7.4) in the Caco-2 cell line with and without verapamil, as described in [59]. Results were expressed as ×10^−6 cm/s (Papp) and as % recovery. The efflux ratio, i.e., Papp(B-A)/Papp(A-B), was calculated. CYP450 induction characterization was performed on human hepatocytes. The mRNA levels of 7 different CYPs were analyzed by qPCR, as described in [72]. The compound was evaluated at 1, 10 and 100 µM. Fold-induction values were determined and compared to cut-off values, as defined for each CYP isozyme in each hepatocyte lot.

NTCP = NTCP (Homo sapiens, UniProt Q14973); assay: Drug transporter inhibition (SLC family); assay type: in vitro ADME; conditions: read-out: Drug transporters inhibition NTCP
Protocol: as §1

OAT1 = OAT1 (Homo sapiens, UniProt Q4U2R8); assay: Drug transporter inhibition (SLC family); assay type: in vitro ADME; conditions: transporter-overexpressing cell lines, read-out: Drug transporters inhibition OAT1
Protocol: as §1

OAT3 = OAT3 (Homo sapiens, UniProt Q8TCC7); assay: Drug transporter inhibition (SLC family); assay type: in vitro ADME; conditions: transporter-overexpressing cell lines, read-out: Drug transporters inhibition OAT3
Protocol: as §1

OATP1B1 = OATP1B1 (Homo sapiens, UniProt Q9Y6L6); assay: Drug transporter inhibition (SLC family); assay type: in vitro ADME; conditions: transporter-overexpressing cell lines, read-out: Drug transporters inhibition OATP1B1
Protocol: as §1

OATP1B3 = OATP1B3 (Homo sapiens, UniProt Q9NPD5); assay: Drug transporter inhibition (SLC family); assay type: in vitro ADME; conditions: transporter-overexpressing cell lines, read-out: Drug transporters inhibition OATP1B3
Protocol: as §1

OCT1 = OCT1 (Homo sapiens, UniProt O15245); assay: Drug transporter inhibition (SLC family); assay type: in vitro ADME; conditions: transporter-overexpressing cell lines, read-out: Drug transporters inhibition OCT1
Protocol: as §1

OCT2 = OCT2 (Homo sapiens, UniProt O15244); assay: Drug transporter inhibition (SLC family); assay type: in vitro ADME; conditions: transporter-overexpressing cell lines, read-out: Drug transporters inhibition OCT2
Protocol: as §1

[3] = PBS pH 7.4, pH 7.4, aqueous buffer, read-out: Solubility PBS pH7.4
[4] = simulated gastric fluid (SGF), simulated gastric fluid, read-out: Solubility SGF
[5] = simulated intestinal fluid (SIF), fassgf or other biorelevant, read-out: Solubility SIF

Chain of ABST (Q12908 whole entry): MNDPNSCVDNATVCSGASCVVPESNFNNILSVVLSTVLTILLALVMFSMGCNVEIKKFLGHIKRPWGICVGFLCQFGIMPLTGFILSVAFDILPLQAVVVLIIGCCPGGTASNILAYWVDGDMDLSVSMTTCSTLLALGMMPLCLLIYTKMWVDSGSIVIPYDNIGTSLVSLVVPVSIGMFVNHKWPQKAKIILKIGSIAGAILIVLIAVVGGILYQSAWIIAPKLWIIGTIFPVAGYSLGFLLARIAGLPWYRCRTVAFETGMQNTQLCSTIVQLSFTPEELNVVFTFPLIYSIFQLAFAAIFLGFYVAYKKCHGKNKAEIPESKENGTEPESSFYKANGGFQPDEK
Chain of OATP1B1 (Q9Y6L6 whole entry): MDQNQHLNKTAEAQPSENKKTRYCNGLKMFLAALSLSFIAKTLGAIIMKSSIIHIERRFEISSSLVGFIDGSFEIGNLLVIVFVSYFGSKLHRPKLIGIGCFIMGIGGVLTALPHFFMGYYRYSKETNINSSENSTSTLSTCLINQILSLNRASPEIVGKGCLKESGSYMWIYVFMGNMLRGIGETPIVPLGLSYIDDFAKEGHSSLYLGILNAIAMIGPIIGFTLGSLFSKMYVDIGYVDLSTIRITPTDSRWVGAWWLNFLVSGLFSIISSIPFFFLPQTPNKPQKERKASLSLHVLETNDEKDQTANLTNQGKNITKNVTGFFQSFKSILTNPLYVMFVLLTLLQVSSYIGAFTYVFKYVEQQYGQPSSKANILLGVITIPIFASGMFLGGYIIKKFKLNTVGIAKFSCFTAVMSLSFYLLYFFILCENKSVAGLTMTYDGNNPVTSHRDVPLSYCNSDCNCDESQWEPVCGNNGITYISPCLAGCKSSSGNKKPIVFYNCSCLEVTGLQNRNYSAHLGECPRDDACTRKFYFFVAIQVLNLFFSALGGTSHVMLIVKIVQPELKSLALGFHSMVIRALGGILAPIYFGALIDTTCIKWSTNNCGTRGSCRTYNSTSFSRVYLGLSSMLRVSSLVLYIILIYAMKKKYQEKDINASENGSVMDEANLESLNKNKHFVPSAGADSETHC
Chain of OATP1B3 (Q9NPD5 whole entry): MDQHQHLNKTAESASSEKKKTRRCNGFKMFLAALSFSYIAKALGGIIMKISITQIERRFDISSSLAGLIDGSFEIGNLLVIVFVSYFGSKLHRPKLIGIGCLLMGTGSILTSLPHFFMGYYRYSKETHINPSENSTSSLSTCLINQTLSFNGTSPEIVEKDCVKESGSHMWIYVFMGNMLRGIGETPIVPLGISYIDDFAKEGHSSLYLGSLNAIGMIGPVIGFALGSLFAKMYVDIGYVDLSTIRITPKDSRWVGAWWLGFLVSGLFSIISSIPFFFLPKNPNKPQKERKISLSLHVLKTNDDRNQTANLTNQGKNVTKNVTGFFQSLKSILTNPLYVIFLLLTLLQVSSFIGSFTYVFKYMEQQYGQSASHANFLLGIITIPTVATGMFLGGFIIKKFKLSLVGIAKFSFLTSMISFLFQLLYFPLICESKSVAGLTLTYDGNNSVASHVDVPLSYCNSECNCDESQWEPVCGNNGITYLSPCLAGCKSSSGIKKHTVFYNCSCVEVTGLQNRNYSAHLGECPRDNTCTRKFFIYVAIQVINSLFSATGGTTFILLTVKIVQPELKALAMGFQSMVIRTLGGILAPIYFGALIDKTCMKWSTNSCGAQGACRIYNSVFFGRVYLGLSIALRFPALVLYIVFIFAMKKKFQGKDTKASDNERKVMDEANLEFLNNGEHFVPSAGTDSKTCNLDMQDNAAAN
Chain of NTCP (Q14973 whole entry): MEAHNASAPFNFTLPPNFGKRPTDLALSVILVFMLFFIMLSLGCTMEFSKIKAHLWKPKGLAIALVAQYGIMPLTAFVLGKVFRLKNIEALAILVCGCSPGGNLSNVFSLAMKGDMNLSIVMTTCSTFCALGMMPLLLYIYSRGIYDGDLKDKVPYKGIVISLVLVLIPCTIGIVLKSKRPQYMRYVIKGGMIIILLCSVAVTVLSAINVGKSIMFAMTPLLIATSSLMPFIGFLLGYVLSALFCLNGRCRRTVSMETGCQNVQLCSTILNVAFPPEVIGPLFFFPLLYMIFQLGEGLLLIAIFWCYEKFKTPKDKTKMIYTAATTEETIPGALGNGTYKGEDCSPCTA
Chain of OCT1 (O15245 whole entry): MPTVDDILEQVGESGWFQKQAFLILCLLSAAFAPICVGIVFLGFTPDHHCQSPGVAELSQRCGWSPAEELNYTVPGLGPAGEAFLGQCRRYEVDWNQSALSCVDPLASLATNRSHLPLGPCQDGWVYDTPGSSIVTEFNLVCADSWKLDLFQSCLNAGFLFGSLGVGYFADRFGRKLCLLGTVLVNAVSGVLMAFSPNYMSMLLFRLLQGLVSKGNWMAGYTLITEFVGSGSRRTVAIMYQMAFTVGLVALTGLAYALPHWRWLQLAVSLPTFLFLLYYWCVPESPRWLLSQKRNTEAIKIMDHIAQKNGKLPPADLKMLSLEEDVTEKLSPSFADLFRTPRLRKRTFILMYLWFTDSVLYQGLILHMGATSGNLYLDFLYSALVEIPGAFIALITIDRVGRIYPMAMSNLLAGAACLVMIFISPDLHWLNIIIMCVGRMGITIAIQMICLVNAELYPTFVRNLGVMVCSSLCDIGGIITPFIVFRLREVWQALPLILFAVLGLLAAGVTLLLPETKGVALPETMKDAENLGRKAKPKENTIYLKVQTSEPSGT
Chain of OCT2 (O15244 whole entry): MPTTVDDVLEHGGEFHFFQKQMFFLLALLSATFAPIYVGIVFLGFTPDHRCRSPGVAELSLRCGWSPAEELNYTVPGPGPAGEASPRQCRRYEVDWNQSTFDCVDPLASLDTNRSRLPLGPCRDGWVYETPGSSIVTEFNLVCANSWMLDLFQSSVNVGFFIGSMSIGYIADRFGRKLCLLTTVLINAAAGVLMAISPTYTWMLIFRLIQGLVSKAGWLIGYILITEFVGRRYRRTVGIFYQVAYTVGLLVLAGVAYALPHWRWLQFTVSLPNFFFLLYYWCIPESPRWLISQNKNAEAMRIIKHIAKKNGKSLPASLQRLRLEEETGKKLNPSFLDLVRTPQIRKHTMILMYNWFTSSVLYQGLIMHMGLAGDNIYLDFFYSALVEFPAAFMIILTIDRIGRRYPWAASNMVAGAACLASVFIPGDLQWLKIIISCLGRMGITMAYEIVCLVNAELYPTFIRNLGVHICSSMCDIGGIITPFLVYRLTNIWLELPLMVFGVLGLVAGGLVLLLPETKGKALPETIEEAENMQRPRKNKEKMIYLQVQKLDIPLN
Chain of OAT3 (Q8TCC7 whole entry): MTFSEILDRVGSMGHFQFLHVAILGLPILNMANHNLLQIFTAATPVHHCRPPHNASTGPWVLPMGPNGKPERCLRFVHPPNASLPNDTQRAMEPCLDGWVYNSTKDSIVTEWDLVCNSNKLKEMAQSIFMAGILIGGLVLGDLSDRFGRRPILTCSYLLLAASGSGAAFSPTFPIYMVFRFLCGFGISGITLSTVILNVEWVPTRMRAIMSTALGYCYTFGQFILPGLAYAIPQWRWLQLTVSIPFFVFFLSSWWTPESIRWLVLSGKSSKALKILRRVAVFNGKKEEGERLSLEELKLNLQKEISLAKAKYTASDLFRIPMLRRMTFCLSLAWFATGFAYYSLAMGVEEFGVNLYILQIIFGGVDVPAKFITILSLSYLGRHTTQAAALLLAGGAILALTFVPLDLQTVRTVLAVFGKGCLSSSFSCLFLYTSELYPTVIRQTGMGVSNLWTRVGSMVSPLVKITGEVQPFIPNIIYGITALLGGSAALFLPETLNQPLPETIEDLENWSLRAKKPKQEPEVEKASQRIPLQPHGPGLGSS
Chain of OAT1 (Q4U2R8 whole entry): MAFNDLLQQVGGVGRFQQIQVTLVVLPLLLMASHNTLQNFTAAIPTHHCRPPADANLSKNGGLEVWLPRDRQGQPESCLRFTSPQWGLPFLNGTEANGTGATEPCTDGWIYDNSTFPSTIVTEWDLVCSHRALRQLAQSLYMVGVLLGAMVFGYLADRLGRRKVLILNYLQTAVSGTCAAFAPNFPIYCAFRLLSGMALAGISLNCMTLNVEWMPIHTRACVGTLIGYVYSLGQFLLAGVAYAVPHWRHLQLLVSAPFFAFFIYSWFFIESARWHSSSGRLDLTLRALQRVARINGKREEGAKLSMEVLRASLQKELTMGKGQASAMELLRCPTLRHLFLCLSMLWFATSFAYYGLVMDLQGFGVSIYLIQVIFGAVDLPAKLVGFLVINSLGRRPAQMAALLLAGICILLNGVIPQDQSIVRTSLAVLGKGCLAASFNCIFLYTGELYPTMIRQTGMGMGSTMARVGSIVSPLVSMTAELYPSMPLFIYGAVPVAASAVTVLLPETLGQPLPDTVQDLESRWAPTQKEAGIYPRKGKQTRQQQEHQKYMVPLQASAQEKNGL

t1/2 ([1]; 10 µM) [h] | Compound | Compound Remaining (1 h, %) ([1]; 10 µM) [%] | half-life at 10 µM [1] [h] | microsomal CLint at 10 µM [1] [µL/min/mg] | solubility [2, 3] [µM] | solubility [2, 4] [µM] | solubility [2, 5] [µM] | half-life at 10 µM (Plasma stability) [h] | inhibition at 10 µM (ABST) [%] | inhibition at 10 µM (NTCP) [%] | inhibition at 10 µM (OAT1) [%] | inhibition at 10 µM (OAT3) [%] | inhibition at 10 µM (OATP1B1) [%] | inhibition at 10 µM (OATP1B3) [%] | inhibition at 10 µM (OCT1) [%] | inhibition at 10 µM (OCT2) [%]
10.0 | O=C(NCCCNCc1ccccc1)c1ccc(Cl)cc1 [compound 7i-deMe] | 83 | > 9 | < 115 | 187 (≈ 56.6 µg/mL) | 197 (≈ 59.7 µg/mL) | 196 (≈ 59.3 µg/mL) | 23 | 5 | 8.7 | -6.2 | 18.7 | 8.6 | 19.1 | 64.6 | 85.8
 | CN(CCCNC(=O)c1ccc(Cl)cc1)Cc1ccccc1 [compound 7i] | 66 | > 1 | < 115 | 185 (≈ 58.6 µg/mL) | 193 (≈ 61.1 µg/mL) | 188 (≈ 59.6 µg/mL) | > 24 | 5.3 | -1.7 | -9.6 | 34.3 | 12 | 23.1 | 41.2 | 49.4
